According to patent US20260001875A1, “AMINOPYRIMIDINYL DERIVATIVES FOR THE TREATMENT OF PARKINSON'S DISEASE” (UNIVERSITY OF DUNDEE, priority 2022, published 2026):

Experiments:
[1] = test system: Rab10 pThr73; experiment: Rab10 Thr73 dephosphorylation (immunoblot) in LRRK2^G2019S MEFs; assay type: cell-based, mouse; settings: Mus musculus, read-out: pRab10 inhibited in LRRK2^G2019S MEFs
[2] = test system: Rab10 pThr73; experiment: Rab10 Thr73 dephosphorylation (immunoblot) in WT MEFs; assay type: cell-based, mouse; settings: Mus musculus, read-out: pRab10 inhibited in WT MEFs
Protocol: (§1) Western blot degradation assays for the LRRK2 protacs were performed with WT and PD-associated LRRK2 [G2019S] mouse embryonic fibroblasts (MEFs). The second-generation PROTACs were tested in parallel with the first generation PROTACs SD75, SD82, and SD100. The compounds were tested at 33 nM or […] concentrations for 4 hours or 24 hours, running two biological replicates per condition and achieving quantifications representative of both replicates. Analysis by quantitative immunoblotting was performed with readouts of the total LRRK2 (antibody recognizes epitope in C-terminus of protein), Rab10 pThr73 (physiological substrate) and LRRK2 pSer935 (biomarker phosphorylation site).
(§2) Primary MEFs were generated as described in a previous study (Wiggin et al., Mol. Cell Biol. 2002 April; 22(8):2871-81.). Briefly, the uterine horn was collected from adult female mice at day E12.5 and transferred to a 10 cm tissue culture dish containing cold PBS. Two forceps were used to tear the yolk sacs to isolate each embryo. Forceps were cleaned thoroughly with 70% ethanol between each embryo isolation. The embryos were culled, and a tissue piece was collected in a PCR tube for genotyping. The red tissue of the embryo, which grows to become the heart and liver, was removed. The remainder of the embryo was minced with a scalpel blade and incubated with 7.5 ml trypsin-EDTA solution for 10 minutes in a 37° C. tissue culture CO2 incubator. The dish was removed from the incubator and checked under a light microscope for single cells. 7.5 ml complete media was added to the trypsinised cells, and the cell suspension was transferred to a 15 ml Falcon tube, centrifuged at 1200 rpm for 5 minutes at room temperature. The trypsin was aspirated, the cell pellet was resuspended in 5 ml fresh complete media, and the cell suspension was plated in a 60 mm tissue culture dish and incubated in a 37° C., 5% CO2 tissue culture incubator. The MEFs at this stage were considered as passage 0 and were passaged and expanded for experimental use once the genotype was confirmed by allelic sequencing and immunoblotting. MEFs were cultured in Dulbecco's modified Eagle medium (DMEM) containing 10% (v/v) fetal bovine serum (FBS), 2 mM L-glutamine, 100 U/ml penicillin, and 100 μg/ml streptomycin supplemented with 1× non-essential amino acids and 1 mM sodium pyruvate.
Culturing and passaging of adherent cell lines were carried out using aseptic technique in CL1 or CL2 (for PBMC isolation) biological safety cabinets. All cells were incubated in a 37° C. incubator with 5% CO2. Cell lines were regularly tested for mycoplasma contamination. For western blot assay, the cells were seeded in 6-well plates. After treating with testing compounds at indicated concentrations and time period, the media was removed and the cells were washed with PBS and lysed in 100 μl ice-cold complete lysis buffer containing 50 mM Tris-HCl pH 7.4, 1 mM EGTA, 10 mM 2-glycerophosphate, 50 mM sodium fluoride, 5 mM sodium pyrophosphate, 270 mM sucrose, supplemented with 1 μg/ml microcystin-LR, 1 mM sodium orthovanadate, complete EDTA-free protease inhibitor cocktail (Roche) and 1% (v/v) Triton X-100. The cells were immediately placed on ice and were scraped and collected into 1.5 ml Eppendorf tubes. Cell lysates were incubated on ice for 10 minutes prior to centrifugation at 15,000 g at 4° C. for 15 minutes. The cell pellet was discarded, and supernatant was collected for analysis by quantitative immunoblotting. For long term storage, the supernatant was flash frozen and stored at −80° C. Protein concentrations of cell lysates were determined using the Bradford assay.
Cell lysates containing a quarter of a volume of 4× NuPAGE LDS sample buffer (NP0007) supplemented with 5% β-mercaptoethanol, were heated at 95° C. for 5 minutes. […]

[3] = test system: Rab10 pThr73; experiment: Rab10 Thr73 dephosphorylation (immunoblot) in LRRK2^G2019S MEFs; assay type: cell-based; settings: Mus musculus, read-out: pRab10 inhibited in LRRK2^G2019S MEFs
Protocol: as §1, with “The” for “Western blot degradation assays for the LRRK2 protacs were performed with WT and PD-associated LRRK2 [G2019S] mouse embryonic fibroblasts (MEFs). The”
as §2
Culturing and passaging of adherent cell lines were carried out using aseptic technique in CL1 or CL2 (for PBMC isolation) biological safety cabinets. All cells were incubated in a 37° C. incubator with 5% CO2. Cell lines were regularly tested for mycoplasma contamination. For western blot assay, the cells were seeded in 6-well plates. […] The cells were immediately placed on ice and were scraped and collected into 1.5 ml Eppendorf tubes. Cell lysates were incubated on ice for 10 minutes prior to centrifugation at 15,000 g at 4° C. for 15 minutes. The cell pellet was discarded, and supernatant was collected for analysis by quantitative immunoblotting. For long term storage, the supernatant was flash frozen and stored at −80° C. Protein concentrations of cell lysates were determined using the Bradford assay.
Cell lysates containing a quarter of a volume of 4× NuPAGE LDS sample buffer (NP0007) supplemented with 5% β-mercaptoethanol, were heated at 95° C. for 5 minutes. 15 to 20 μg of samples were loaded onto pre-cast 4-12% Bis-Tris midi 20W or 26W gels (Thermofisher Scientific®, Cat #WG1402BOX or WG1403BOX) and resolved at 130 V for 2 hours with NuPAGE MOPS SDS running buffer (Thermofisher Scientific® Cat #NP0001-02). Proteins were electrophoretically transferred onto a 0.45 μm nitrocellulose membrane (GE Healthcare, Amersham Protran® Supported 0.45 mm NC) at 90 V for 90 min on ice in transfer buffer (48 mM Tris base and 39 mM glycine supplemented with 20% methanol). The transferred membrane was blocked with 5% (w/v) skim milk powder dissolved in tris-buffered saline with tween (TBS-T) (50 mM Tris base, 150 mM sodium chloride (NaCl), 0.1% (v/v) Tween-20) at room temperature for 1 hour.

## CNc1nc(Nc2ccc(C(=O)N3CCN(C[C@@H]4CCC[C@H](CSC(C)(C)[C@H](NC(=O)C5(F)CC5)C(=O)N5C[C@H](O)C[C@H]5C(=O)NCc5ccc(-c6scnc6C)cc5)C4)CC3)cc2OC)ncc1Cl [XL02063, (2S,4R)-1-((R)-3-((((1S,3R)-3-((4-(4-((5-chloro-4-(methylamino)pyrimidin-2-yl)amino)-3-methoxybenzoyl)piperazin-1-yl)methyl)cyclohexyl)methyl)thio)-2-(1-fluorocyclopropane-1-carboxamido)-3-methylbutanoyl)-4-hydroxy-N-(4-(4-methylthiazol-5-yl)benzyl)pyrrolidine-2-carboxamide]
[1]; 1 μM/4 h treatment
  inhibition at 1 µM: 10 to 100%
[1]; 1 μM/24 h treatment
  inhibition at 1 µM: 80 to 100%
[2]; 33 nM/4 h treatment
  inhibition at 0.033 µM: 0 to 70%
[2]; 33 nM/24 h treatment
  inhibition at 0.033 µM: 0 to 80%
[2]; 1 μM/4 h treatment
  inhibition at 1 µM: 80 to 100%
[2]; 1 μM/24 h treatment
  inhibition at 1 µM: 80 to 100%
[3]; 33 nM/4 h treatment
  inhibition at 0.033 µM: 0 to 90%
[3]; 33 nM/24 h treatment
  inhibition at 0.033 µM: 30 to 90%

## CNc1nc(Nc2ccc(C(=O)N3CCN(CCCSC(C)(C)[C@H](NC(=O)C4(F)CC4)C(=O)N4C[C@H](O)C[C@H]4C(=O)NCc4ccc(-c5scnc5C)c(F)c4)CC3)cc2OC)ncc1Cl [XL01122, (2S,4R)-1-((R)-3-((3-(4-(4-((5-chloro-4-(methylamino)pyrimidin-2-yl)amino)-3-methoxybenzoyl)piperazin-1-yl)propyl)thio)-2-(1-fluorocyclopropane-1-carboxamido)-3-methylbutanoyl)-N-(3-fluoro-4-(4-methylthiazol-5-yl)benzyl)-4-hydroxypyrrolidine-2-carboxamide]
[1]; 1 μM/4 h treatment
  inhibition at 1 µM: 20 to 100%
[1]; 1 μM/24 h treatment
  inhibition at 1 µM: 10 to 100%
[2]; 33 nM/4 h treatment
  inhibition at 0.033 µM: 0 to 40%
[2]; 33 nM/24 h treatment
  inhibition at 0.033 µM: 0 to 60%
[2]; 1 μM/4 h treatment
  inhibition at 1 µM: 10 to 95%
[2]; 1 μM/24 h treatment
  inhibition at 1 µM: 30 to 100%
[3]; 33 nM/4 h treatment
  inhibition at 0.033 µM: 0 to 70%
[3]; 33 nM/24 h treatment
  inhibition at 0.033 µM: 0 to 90%

## CNc1nc(Nc2ccc(C(=O)N3CCN(CCOCCOCCSC(C)(C)[C@H](NC(=O)C4(F)CC4)C(=O)N4C[C@H](O)C[C@H]4C(=O)N[C@@H](C)c4ccc(-c5scnc5C)cc4)CC3)cc2OC)ncc1Cl [XL01119, (2S,4R)-1-((R)-3-((2-(2-(2-(4-(4-((5-chloro-4-(methylamino)pyrimidin-2-yl)amino)-3-methoxybenzoyl)piperazin-1-yl)ethoxy)ethoxy)ethyl)thio)-2-(1-fluorocyclopropane-1-carboxamido)-3-methylbutanoyl)-4-hydroxy-N—((S)-1-(4-(4-methylthiazol-5-yl)phenyl)ethyl)pyrrolidine-2-carboxamide]
[1]; 1 μM/4 h treatment
  inhibition at 1 µM: 20 to 100%
[1]; 1 μM/24 h treatment
  inhibition at 1 µM: 10 to 100%
[2]; 33 nM/4 h treatment
  inhibition at 0.033 µM: 0 to 40%
[2]; 33 nM/24 h treatment
  inhibition at 0.033 µM: 0 to 60%
[2]; 1 μM/4 h treatment
  inhibition at 1 µM: 10 to 95%
[2]; 1 μM/24 h treatment
  inhibition at 1 µM: 30 to 100%
[3]; 33 nM/4 h treatment
  inhibition at 0.033 µM: 0 to 70%
[3]; 33 nM/24 h treatment
  inhibition at 0.033 µM: 0 to 90%

## CNc1nc(Nc2ccc(C(=O)N3CCN(Cc4ccc(CSC(C)(C)[C@H](NC(=O)C5(F)CC5)C(=O)N5C[C@H](O)C[C@H]5C(=O)N[C@@H](C)c5ccc(-c6scnc6C)cc5)cc4)CC3)cc2OC)ncc1Cl [XL01120, (2S,4R)-1-((R)-3-((4-((4-(4-((5-chloro-4-(methylamino)pyrimidin-2-yl)amino)-3-methoxybenzoyl)piperazin-1-yl)methyl)benzyl)thio)-2-(1-fluorocyclopropane-1-carboxamido)-3-methylbutanoyl)-4-hydroxy-N—((S)-1-(4-(4-methylthiazol-5-yl)phenyl)ethyl)pyrrolidine-2-carboxamide]
[1]; 1 μM/4 h treatment
  inhibition at 1 µM: 20 to 100%
[1]; 1 μM/24 h treatment
  inhibition at 1 µM: 10 to 100%
[2]; 33 nM/4 h treatment
  inhibition at 0.033 µM: 0 to 40%
[2]; 33 nM/24 h treatment
  inhibition at 0.033 µM: 0 to 60%
[2]; 1 μM/4 h treatment
  inhibition at 1 µM: 10 to 95%
[2]; 1 μM/24 h treatment
  inhibition at 1 µM: 30 to 100%
[3]; 33 nM/4 h treatment
  inhibition at 0.033 µM: 0 to 70%
[3]; 33 nM/24 h treatment
  inhibition at 0.033 µM: 0 to 90%

## CNc1nc(Nc2ccc(OC[C@H]3CC[C@H](CSC(C)(C)C(NC(=O)C4(F)CC4)C(=O)N4C[C@H](O)C[C@H]4C(=O)NCc4ccc(-c5scnc5C)cc4)CC3)cc2OC)ncc1Cl (stereo partly drawn) [XL01168, (2S,4R)-1-((S)-3-((((1R,4S)-4-((4-((5-chloro-4-(methylamino)pyrimidin-2-yl)amino)-3-methoxyphenoxy)methyl)cyclohexyl)methyl)thio)-2-(1-fluorocyclopropane-1-carboxamido)-3-methylbutanoyl)-4-hydroxy-N-(4-(4-methylthiazol-5-yl)benzyl)pyrrolidine-2-carboxamide]
[1]; 1 μM/4 h treatment
  inhibition at 1 µM: 20 to 100%
[1]; 1 μM/24 h treatment
  inhibition at 1 µM: 10 to 100%
[2]; 33 nM/4 h treatment
  inhibition at 0.033 µM: 0 to 40%
[2]; 33 nM/24 h treatment
  inhibition at 0.033 µM: 0 to 60%
[2]; 1 μM/4 h treatment
  inhibition at 1 µM: 10 to 95%
[2]; 1 μM/24 h treatment
  inhibition at 1 µM: 30 to 100%
[3]; 33 nM/4 h treatment
  inhibition at 0.033 µM: 0 to 70%
[3]; 33 nM/24 h treatment
  inhibition at 0.033 µM: 0 to 90%
